Biological target: T1, SMARCA2 (Homo sapiens, UniProt P51531)
T1 construct: endogenous in cells; host or cells: RKO cells (CRL-2577, ATCC)
Test: SMARCA2 degradation analysis by imaging in RKO cells (DC50 A2)
Assay type: cell-based
Conditions: tables 69, 70, 73, 76-78
Description: (§1) Determination of SMARCA2 and SMARCA4 Degradation (DC50 A2 and A4 [nM])
(§2) Protein Degradation Assays for SMARCA2 and SMARCA4
(§3) For degradation analysis by imaging, 1250 RKO cells (CRL-2577, ATCC) per well were seeded into 60 μL DMEM (Sigma Aldrich) supplemented with 10% FBS (Hyclone) in 384-well flat bottom plates (CellCarrier Ultra, Perkin Elmer) and incubated at 37° C. and 5% CO2 in a humidified atmosphere overnight. Compounds were added the next day using an Access Labcyte Workstation with a Labcyte Echo 550 or 555 acoustic dispenser and incubated with the cells for 4 or 24 h. Cells were fixed by adding 25 μL fixation buffer (7.4% formaldehyde (Sigma Aldrich F8775), 0.2% Triton TX100 (Sigma Aldrich F93443) in PBS) for 15 minutes at room temperature. After aspirating the fixing solution, the cells were washed once with 25 μL PBS and 25 μL of Blocking Buffer (10% Goat Serum in PBS) were added to each well and incubated for 30 minutes. Cells were washed with PBS and incubated with 20 μL mouse anti-Smarca4 (BRG1) antibody (Cell Signaling #52251) or rabbit anti-Smarca2 (BRM) antibody (Sigma Aldrich HPA029981) in blocking solution (PBS with 10% FCS) for ca. 2-4 h at RT. For detection of the nuclei, 25 μL of 5 μg/mL Hoechst 33342 (stock 10 mg/mL in H2O; Invitrogen H1399) were added together with Alexa Fluor 647 goat anti-mouse IgG (Invitrogen A-21235) or Alexa Fluor 488 goat anti-rabbit IgG (Invitrogen A-11034) in blocking solution and incubated for 60 min at RT. The cell layer was washed with 25 μL PBS, the wells were filled with 25 μL PBS and the plates sealed with an adhesive sheet. The mean intensity at 488 or 647 nm in the nucleus was measured using an Opera Phenix Plus High-Content Screening System (Perkin Elmer), values were normalized to the background and DMSO control and DC50 values were calculated and analyzed using a four-parametric logistic model.

T1 sequence (P51531 whole entry): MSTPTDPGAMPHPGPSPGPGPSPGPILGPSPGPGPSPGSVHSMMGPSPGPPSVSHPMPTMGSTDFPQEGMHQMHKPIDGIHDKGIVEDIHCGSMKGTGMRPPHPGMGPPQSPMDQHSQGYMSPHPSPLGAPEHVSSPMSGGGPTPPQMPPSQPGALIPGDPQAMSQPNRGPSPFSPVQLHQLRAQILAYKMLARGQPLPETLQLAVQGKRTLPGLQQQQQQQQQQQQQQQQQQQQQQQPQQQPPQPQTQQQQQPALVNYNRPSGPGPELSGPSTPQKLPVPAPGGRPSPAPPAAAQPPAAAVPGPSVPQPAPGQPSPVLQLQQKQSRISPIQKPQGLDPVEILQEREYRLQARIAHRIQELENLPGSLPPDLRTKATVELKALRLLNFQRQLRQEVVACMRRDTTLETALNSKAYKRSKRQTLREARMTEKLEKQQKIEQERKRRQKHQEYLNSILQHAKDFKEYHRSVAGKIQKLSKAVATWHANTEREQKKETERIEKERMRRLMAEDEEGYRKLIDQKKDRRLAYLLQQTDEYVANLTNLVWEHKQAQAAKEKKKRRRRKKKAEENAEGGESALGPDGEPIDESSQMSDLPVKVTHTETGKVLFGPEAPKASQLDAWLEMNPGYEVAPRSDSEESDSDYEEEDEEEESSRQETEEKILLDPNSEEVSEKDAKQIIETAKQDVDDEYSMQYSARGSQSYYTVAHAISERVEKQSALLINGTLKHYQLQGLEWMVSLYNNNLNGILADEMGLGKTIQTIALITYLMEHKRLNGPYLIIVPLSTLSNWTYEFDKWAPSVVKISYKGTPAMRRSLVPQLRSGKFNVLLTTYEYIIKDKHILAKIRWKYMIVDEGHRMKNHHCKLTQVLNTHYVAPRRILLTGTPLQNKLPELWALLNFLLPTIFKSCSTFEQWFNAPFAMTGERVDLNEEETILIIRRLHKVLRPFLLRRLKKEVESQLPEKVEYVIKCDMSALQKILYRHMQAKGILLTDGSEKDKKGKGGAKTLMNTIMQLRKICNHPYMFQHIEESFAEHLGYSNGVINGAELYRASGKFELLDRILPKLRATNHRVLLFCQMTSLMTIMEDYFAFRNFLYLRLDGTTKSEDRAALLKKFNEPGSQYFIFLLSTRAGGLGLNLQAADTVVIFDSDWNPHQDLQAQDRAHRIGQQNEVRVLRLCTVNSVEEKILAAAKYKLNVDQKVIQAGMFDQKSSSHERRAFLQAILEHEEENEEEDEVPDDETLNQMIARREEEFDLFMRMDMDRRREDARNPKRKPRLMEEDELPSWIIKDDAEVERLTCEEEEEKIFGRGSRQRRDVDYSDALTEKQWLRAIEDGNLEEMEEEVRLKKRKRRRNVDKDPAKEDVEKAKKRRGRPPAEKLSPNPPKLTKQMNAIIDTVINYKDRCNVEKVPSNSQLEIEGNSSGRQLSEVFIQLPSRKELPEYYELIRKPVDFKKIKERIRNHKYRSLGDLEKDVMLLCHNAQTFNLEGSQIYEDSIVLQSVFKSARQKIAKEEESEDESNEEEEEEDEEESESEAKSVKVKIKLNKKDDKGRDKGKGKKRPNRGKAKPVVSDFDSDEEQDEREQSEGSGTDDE

| Compound | DC50 |
| --- | --- |
| Cc1ncsc1-c1ccc([C@H](CCCN2CCC(c3cc4c(cc3OCCOCCN3CCOCC3)n3c5cccc(Br)c5c(=O)nc3n4C3CCCC3)CC2)NC(=O)[C@@H]2C[C@@H](O)CN2C(=O)[C@@H](NC(=O)C2(F)CC2)C(C)(C)C)cc1 [Compound 42z] | 20 nM |

Biological target: T2, SMARCA2BD (Homo sapiens, UniProt P51531)
T2 construct: the SMARCA2BD prepared at 0.5-0.7 mg/mL in coupling buffer
T2 sequence (P51531 1373-1493 isoform P51531-2 limits assumed): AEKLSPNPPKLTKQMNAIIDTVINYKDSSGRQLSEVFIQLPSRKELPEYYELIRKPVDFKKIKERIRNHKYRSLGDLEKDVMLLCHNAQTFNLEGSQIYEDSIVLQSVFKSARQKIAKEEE
Test: Binary SMARCA2 binding affinity determination (A2 binary): SMARCA2 SPR binding experiments
Conditions: not given
Description: Binary SMARCA2 Binding Affinity Determination (A2 Binary [nM]):
SMARCA2 SPR Binding Experiments
SPR experiments were performed on Biacore 8K or T200 instruments (GE Healthcare). Immobilization of target protein was carried out at 25° C. on a CM5 chip using amine coupling (EDC/NHS, GE Healthcare) in HBS-P+ running buffer, containing 2 mM TCEP, pH 7.4. […] The surface was deactivated using 1 M ethanolamine.
All interaction experiments were performed at 6° C. in running buffer containing 20 mM TRIS, 150 mM potassium chloride, 2 mM magnesium chloride, 2 mM TCEP, 0.005% TWEEN 20, 1% dimethyl sulfoxide; pH 8.3. Sensorgrams from reference surfaces and blank injections were subtracted from the raw data prior to data analysis using Biacore T200 or Biacore 8K evaluation software. Sensorgrams recorded at different compound concentrations in multi-cycle experiments were fitted using a 1:1 interaction model, with a term for mass-transport included.

| Compound | Kd |
| --- | --- |
| O=c1nc2n(C3CCCC3)c3cc(C4CCNCC4)ccc3n2c2cccc(Br)c12 [Compound 28a, 4-bromo-7-cyclopentyl-9-(4-piperidyl)benzimidazolo[1,2-a]quinazolin-5-one] | 48 nM |

Same assay, conditions: binary SMARCA2 binding affinity; SPR at 6° C., pH 8.3; read-out: A2 binary

| Compound | Kd |
| --- | --- |
| CCn1c2cc(C3CCNCC3)c(OCCOCCOC)cc2n2c3cccc(Br)c3c(=O)nc12 [Compound 28k] | 45 nM |
| N[C@H]1CC[C@H](c2ccc3c(c2)n(C2CCCC2)c2nc(=O)c4c(Br)cccc4n32)CC1 [Compound 28m] | 29 nM |
| C[C@H]1CNCCN1c1ccc2c(c1)n(C1CCCC1)c1nc(=O)c3c(Br)cccc3n21 [Compound 28o] | 40 nM |
| C[C@@H]1CNCCN1c1ccc2c(c1)n(C1CCCC1)c1nc(=O)c3c(Br)cccc3n21 [Compound 28p] | 55 nM |
| O=c1nc2n(C3CCCC3)c3cc(N4CCNCC4)ccc3n2c2cccc(Br)c12 [Compound 28r] | 44 nM |
| O=c1nc2n(C3CCCC3)c3cc(N4C[C@@H]5C[C@H]4CN5)ccc3n2c2cccc(Br)c12 [Compound 28s] | 70 nM |
| O=c1nc2n(C3CCCC3)c3cc(C4CCNCC4)c(OC[C@@H]4CCCO4)cc3n2c2cccc(Br)c12 [Compound 28v] | 45 nM |
| COCCOCCOc1cc2c(cc1C1CCNCC1)n(C1CCCC1)c1nc(=O)c3c(Br)cccc3n21 [Compound 28y] | 50 nM |
| CC(C)(C)OC(=O)N1CCC(c2ccc3c(c2)n(C2CCCC2)c2nc(=O)c4c(N)cccc4n32)CC1 [Compound 30a] | 541 nM |
| CC(C)(C)OC(=O)Oc1cc2c(cc1C1CCN(C(=O)OC(C)(C)C)CC1)n(C1CCCC1)c1nc(=O)c3c(Br)cccc3n21 [Compound 33a] | 157 nM |

Biological target: T3, SMARCA4 (Homo sapiens, UniProt P51532)
T3 construct: endogenous in cells; host or cells: RKO cells (CRL-2577, ATCC)
T3 sequence (P51532 whole entry): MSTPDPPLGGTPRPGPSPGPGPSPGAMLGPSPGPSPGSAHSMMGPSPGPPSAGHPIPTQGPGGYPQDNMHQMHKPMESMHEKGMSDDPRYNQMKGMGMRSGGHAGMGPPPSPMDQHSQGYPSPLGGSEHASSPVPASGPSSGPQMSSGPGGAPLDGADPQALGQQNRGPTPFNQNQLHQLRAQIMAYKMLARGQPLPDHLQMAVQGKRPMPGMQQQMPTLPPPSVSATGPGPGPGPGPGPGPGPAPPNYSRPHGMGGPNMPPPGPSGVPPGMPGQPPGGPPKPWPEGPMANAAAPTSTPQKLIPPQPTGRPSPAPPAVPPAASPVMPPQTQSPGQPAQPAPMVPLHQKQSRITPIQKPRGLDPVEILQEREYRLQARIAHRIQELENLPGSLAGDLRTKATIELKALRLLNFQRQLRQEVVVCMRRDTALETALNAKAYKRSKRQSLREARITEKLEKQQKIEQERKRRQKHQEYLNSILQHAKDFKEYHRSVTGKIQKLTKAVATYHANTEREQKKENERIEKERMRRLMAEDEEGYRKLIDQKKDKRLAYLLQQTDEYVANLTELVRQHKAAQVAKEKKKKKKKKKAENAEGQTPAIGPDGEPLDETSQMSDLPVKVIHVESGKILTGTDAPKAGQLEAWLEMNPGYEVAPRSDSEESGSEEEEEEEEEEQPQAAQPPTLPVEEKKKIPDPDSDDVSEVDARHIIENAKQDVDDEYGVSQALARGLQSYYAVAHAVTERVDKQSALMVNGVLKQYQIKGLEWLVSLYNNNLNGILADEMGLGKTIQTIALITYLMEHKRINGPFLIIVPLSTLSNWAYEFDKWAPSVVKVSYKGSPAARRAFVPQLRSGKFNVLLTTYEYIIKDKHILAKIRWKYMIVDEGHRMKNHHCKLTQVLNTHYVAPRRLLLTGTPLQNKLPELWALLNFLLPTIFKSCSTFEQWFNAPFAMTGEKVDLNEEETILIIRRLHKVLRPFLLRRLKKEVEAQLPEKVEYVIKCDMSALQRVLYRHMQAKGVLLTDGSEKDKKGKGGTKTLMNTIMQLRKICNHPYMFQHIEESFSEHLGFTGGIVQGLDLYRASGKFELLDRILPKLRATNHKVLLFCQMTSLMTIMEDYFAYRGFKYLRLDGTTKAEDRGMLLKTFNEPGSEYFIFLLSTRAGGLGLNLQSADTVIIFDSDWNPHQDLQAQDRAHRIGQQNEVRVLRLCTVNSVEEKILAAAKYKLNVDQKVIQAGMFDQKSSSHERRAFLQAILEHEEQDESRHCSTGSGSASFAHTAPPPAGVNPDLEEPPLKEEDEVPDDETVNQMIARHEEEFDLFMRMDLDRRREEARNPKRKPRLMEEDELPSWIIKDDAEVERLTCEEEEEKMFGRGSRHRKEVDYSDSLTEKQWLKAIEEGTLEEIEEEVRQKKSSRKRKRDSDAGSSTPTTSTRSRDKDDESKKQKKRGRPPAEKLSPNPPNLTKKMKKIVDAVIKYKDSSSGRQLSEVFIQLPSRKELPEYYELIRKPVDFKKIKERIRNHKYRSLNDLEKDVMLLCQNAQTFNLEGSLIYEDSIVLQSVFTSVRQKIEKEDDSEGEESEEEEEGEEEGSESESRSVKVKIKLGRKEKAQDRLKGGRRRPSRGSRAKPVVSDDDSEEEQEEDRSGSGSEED
Test: SMARCA4 degradation analysis by imaging in RKO cells (DC50 A4)
Assay type: cell-based
Conditions: tables 69, 70, 73, 76-78
Description: as §1, §2, §3

| Compound | DC50 |
| --- | --- |
| Cc1ncsc1-c1ccc([C@H](CCCN2CCC(c3cc4c(cc3OCCOCCN3CCOCC3)n3c5cccc(Br)c5c(=O)nc3n4C3CCCC3)CC2)NC(=O)[C@@H]2C[C@@H](O)CN2C(=O)[C@@H](NC(=O)C2(F)CC2)C(C)(C)C)cc1 [Compound 42z] | 41 nM |

— patent publication US20250049929A1, “NOVEL TETRAHYDROQUINOLINES AND PROTEOLYSIS TARGETING CHIMERA (PROTACS) COMPRISING THEM AS DEGRADERS OF SMARCA” (Boehringer Ingelheim International GmbH, priority 2021, published 2025)
